Assay results published in US20170121315A1, “HETEROBICYCLICALLY SUBSTITUTED 4-OXOBUTANE ACID DERIVATIVES AND USE THEREOF” (priority 2014, published 2017).

Tests used:
[1] = test system: rat hepatocytes; test: Hepatocyte assay for determination of metabolic stability; type: in vitro ADME; conditions: after incubation with rat hepatocytes
Method: The metabolic stability of test compounds towards hepatocytes is determined by incubating the compounds at low concentrations (preferably below or around 1 μM) and at low cell counts (preferably at 1*10^6 cells/ml) in order to ensure maximum linearity of kinetic conditions in the experiment. Seven samples from the incubation solution are taken for the LC-MS analysis within a fixed time pattern, in order to determine the half-life (i.e. the degradation) of the particular compound. This half-life is used to calculate various “Clearance” parameters (CL) and “Fmax” values (see below).
The CL and Fmax values are a measure of the phase 1 and phase 2 metabolism of the compounds in the hepatocytes. In order to minimize the influence of the organic solvent on the enzymes in the incubation batches, the concentration thereof is generally limited to 1% (acetonitrile) or 0.1% (DMSO).
For all species and breeds, a hepatocyte cell count in the liver of 1.1*10^8 cells/g of liver is expected.

[2] = molecular target: T1, human macrophage elastase (HME/hMMP-12) (Homo sapiens, UniProt P39900); test: In vitro HME inhibition test (standard or high-sensitivity); type: biochemical; conditions: in some cases mean values, rounded to two significant figures
T1 construct: purchased R&D Systems 917-MP
T1 sequence (P39900 106-470): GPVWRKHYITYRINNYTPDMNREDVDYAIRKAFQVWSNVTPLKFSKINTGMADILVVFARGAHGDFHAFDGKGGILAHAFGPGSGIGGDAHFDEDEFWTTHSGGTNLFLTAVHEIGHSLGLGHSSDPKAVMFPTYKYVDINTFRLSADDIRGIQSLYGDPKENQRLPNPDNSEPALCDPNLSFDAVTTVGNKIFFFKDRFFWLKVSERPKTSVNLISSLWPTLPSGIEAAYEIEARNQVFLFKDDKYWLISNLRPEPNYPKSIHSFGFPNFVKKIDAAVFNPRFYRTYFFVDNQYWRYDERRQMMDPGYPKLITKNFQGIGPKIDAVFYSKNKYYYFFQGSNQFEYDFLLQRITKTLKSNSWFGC
Outline: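 Autoactivated HME (0.5 nM; high-sensitivity format 0.05 nM, ~16 h) with 5 μM quenched Mca-PLGLEEA-Dap(Dnp)-NH2 substrate in HEPES pH 7.4, NaCl, CaCl2, ZnCl2, EDTA, Brij buffer, 2 h at 37° C. Fluorescence at ex 323/em 393 nm; IC50 from signal versus concentration.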

Structure (SMILES) | CLblood (calculated blood clearance, well-stirred) [1] [mL/min/kg] | Fmax (maximum possible bioavailability after oral administration, well-stirred) [1] [%] | IC50 [2] [pM]
O=C(CC(CCn1nnc2ccccc2c1=O)C(=O)O)c1noc2cc(OCC3CCOCC3)ccc12 (racemic) [Example 133, (+/−)-4-Oxo-2-[2-(4-oxo-1,2,3-benzotriazin-3(4H)-yl)ethyl]-4-[6-(tetrahydro-2H-pyran-4-ylmethoxy)-1,2-benzoxazol-3-yl]butanoic acid] | 13.3 | 81.1 | 240
CS(=O)(=O)c1ccc(COc2ccc3oc(C(=O)CC(CCn4nnc5ccccc5c4=O)C(=O)O)cc3c2)cc1 (racemic) [Example 38, (+/−)-4-(5-{[4-(Methylsulphonyl)benzyl]oxy}-1-benzofur-2-yl)-4-oxo-2-[2-(4-oxo-1,2,3-benzotriazin-3(4H)-yl)ethyl]butanoic acid] | 12.5 | 82.1 | 720
CCCCCOc1ccc2cc(C(=O)CC(CCn3nnc4ccccc4c3=O)C(=O)O)oc2c1 (single isomer, unassigned; (+)) [Example 57, (+)-4-Oxo-2-[2-(4-oxo-1,2,3-benzotriazin-3(4H)-yl)ethyl]-4-[6-(pentyloxy)-1-benzofur-2-yl]butanoic acid] | 35.7 | 48.9 | 2100
NC(=O)c1cccc(COc2ccc3oc(C(=O)CC(CCn4nnc5ccccc5c4=O)C(=O)O)cc3c2)c1 (racemic) [Example 32, (+/−)-4-{5-[(3-Carbamoylbenzyl)oxy]-1-benzofur-2-yl}-4-oxo-2-[2-(4-oxo-1,2,3-benzotriazin-3(4H)-yl)ethyl]butanoic acid] | 22 | 68.5 | 680
O=C(C[C@@H](CCn1nnc2ccccc2c1=O)C(=O)O)c1noc2cc(OCC3CCOCC3)ccc12 (single isomer, unassigned; enantiomer 1) [Example 134] | 19.7 | 71.8 | 24000
O=C(CC(CCn1nnc2ccccc2c1=O)C(=O)O)c1coc2cc(OCc3ccc(Cl)c(Cl)c3)ccc12 (single isomer, unassigned) [Example 94, 4-{6-[(3,4-Dichlorobenzyl)oxy]-1-benzofur-3-yl}-4-oxo-2-[2-(4-oxo-1,2,3-benzotriazin-3(4H)-yl)ethyl]butanoic acid] | 25.8 | 63.2 | 820
O=C(CC(CCn1nnc2ccc(C(F)(F)F)cc2c1=O)C(=O)O)c1cc2ccc(OCC3CC3)cc2s1 (single isomer, unassigned; enantiomer 2) [Example 130, 4-[6-(Cyclopropylmethoxy)-1-benzothiophen-2-yl]-4-oxo-2-{2-[4-oxo-6-(trifluoromethyl)-1,2,3-benzotriazin-3(4H)-yl]ethyl}butanoic acid (enantiomer 2)] | 34.8 | 50.3 | 120
